What was measured:
mouse C57BL/6J = experiment: Single oral dose test of YIT 12355 to mouse given indigestible saccharide; format: in vivo
Protocol: Mice were acclimatized and raised with F2 feed for 1 week and then divided into 4 groups such that the average body weight was almost equal among these groups. A control diet (Table 12) was administered thereto for 1 week. Then, the control diet was administered to the control group (−/− group) and the AH/− group for 2 weeks while purified feed containing maltitol (MAL-containing diet) was administered to the −/MAL group and the AH/MAL group for 2 weeks. A live cell suspension of YIT 12355 was administered at a single dose using a probe after the administration of the control diet for 1 week. At the final day of the test, each mouse was dissected, and the cecal contents were recovered. The cecal contents were subjected to the cell count measurement of YIT 12355. • Test material: Maltitol (5% mixed feed administration) • Administered bacterial strain: YIT 12355 • Animal species: Mouse C57BL/6J (4 weeks old; CLEA Japan, Inc.) • Group configuration: 7 mice×4 groups The bacterial solution (viable count: 3.1×10^9 cfu/mL, total cell count: 1.9×10^10 cells/mL) prepared in the preceding paragraph 2) was orally administered at a single dose of 0.2 mL (viable count: 6.2×10^8 cfu/mouse, total cell count: 3.8×10^9 cells/mouse) to each mouse using a probe. To the control group and the −/MAL group, 0.2 mL of physiological saline was administered instead of the bacterial solution. […] Then, the cecal contents were recovered. The cecal contents were diluted 10-fold with PBS and subjected to DNA extraction. DNA was extracted by the bead-phenol method described in the paragraph 4)a) of Example 5 from the 10-fold diluted solution of the intestinal tract contents. The cell count of YIT 12355 was measured by quantitative PCR using the obtained DNA as a template and the bacterial species-specific primers described in the paragraph 4)a) of Example 5. After fixation of a portion of the 10-fold diluted solution of the intestinal tract contents in a 4% solution of paraformaldehyde in PBS, the total cell count was measured by the DAPI counting method. The cell count of YIT 12355 was divided by the total cell count to calculate an occupancy (%). (Occupancy of YIT 12355) (%)=(Cell count of YIT 12355/Total cell count)×100 (Expression 5)

[1] = Biochemical properties: saccharide fermentability (API-ZYM, Rapid ID32A API, API KENKI 20A); set-up: key: +: positive reaction; −: negative reaction; +^w: weak reaction
Excerpt: Commercially available API-ZYM, Rapid ID32A API, and API KENKI 20A (SYSMEX bioMerieux Co., Ltd.) were used in the testing of biochemical properties of various bacterial strains. The testing method followed the product manuals.

[2] = summary in words of Table 13, single dose

With “A. hadrus (Eubacterium hadrum) YIT 12355 (NITE BP-01832)” the Total cell count (mouse C57BL/6J; cecum, DAPI counting method, single oral dose) was 10.9 ± 0.4 log10 (cells/g contents), the “Cell count, A. hadrus YIT 12355” value (mouse C57BL/6J; cecum, quantitative PCR, single oral dose) was 8.0 ± 0.3 log10 (cells/g contents) and the Occupancy (mouse C57BL/6J; cecum, ratio to total cell count, single oral dose) was 0.3%. For the same substance, the “cell count of YIT 12355” value (mouse C57BL/6J; [2]) was “largely changes neither”, the “occupancy of YIT 12355” value (mouse C57BL/6J; [2]) was “largely changes neither” and the Aesculin [1] was “+”. The D-Cellobiose [1] was “+^w”, the D-Mannitol [1] was “+” and the D-Raffinose [1] was “−”. The D-Xylose [1] was “+”, the Glycerol [1] was “+^w” and the L-Arabinose [1] was “+”. The L-Rhamnose [1] was “+”, the L-Sorbitol [1] was “+” and the Mallose [1] was “+”. For the same substance, the Salicin [1] was “+”.
